# How the values were obtained:
# [1] = tested on: Sprague-Dawley rats, streptozotocin model; assay: Rat model of diabetic neuropathy (STZ model), paw pressure test (Example 14); assay type: in vivo; conditions: Compound I-1 10 mg/kg p.o., gabapentin 100 mg/kg p.o., morphine 4 mg/kg s.c., mean±s.e.m.
# male Long Evans rats = assay: Novel Object Recognition (NOR) test, MK-801-induced memory disruption (Example 10); assay type: in vivo, rat; conditions: for Recognition Index, Mean: 0 to 3 minute time bin
# Description: Objective. To assess the efficacy of compounds of the invention in reversing memory disruption induced by MK-801 using the Novel Object Recognition (NOR) test in male Long Evans rats. The NOR is a test of recognition learning and memory retrieval, which takes advantage of the spontaneous preference of rodents to investigate a novel object compared with a familiar one (Ennaceur and Delacour, 1988). […] The NOR test has been employed extensively to assess the potential cognitive-enhancing properties of novel test compounds. […] In the present study, a memory saving model was used to test the novel compound—MK-801 (Dizocilpine), an uncompetitive antagonist of the NMD A receptor was used to cause deficit of recognition memory. Compounds of the invention were evaluated through its efficacy in reversing memory impairment.
# Animals. Adult male Long-Evans rats (275-299 gram at arrival from Envigo, Indianapolis, Ind.) were used in this study. Rats were placed in the experimental rooms and assigned unique identification numbers (tail marks). Rats were housed 2 per cage in polycarbonate cages with filter tops and acclimated for at least 7 days prior to testing. Animal room was maintained in a 12/12 h light/dark cycle (lights on at 07.00 EST), 22±1° C. and relative humidity at approximately 50%. Food and water were provided ad libitum. All animals were examined, handled and weighed prior to the study to assure adequate health and to minimize the non-specific stress associated with testing. Each animal was randomly assigned across the treatment groups. The experiments were conducted during the animal's light cycle phase.
# MK-801 (0.1 mg/kg; Sigma-Aldrich) was dissolved in saline and injected IP 15 min prior to NOR training.
# Galantamine (1 mg/kg; Tocris) was dissolved in saline and injected IP 15 minutes prior to training.
# Compound I-1 (0.01, 0.1, and 1 mg/kg) was oral administrated 60 minutes prior to training. The dose volume was 4 ml/kg
# Experimental procedures. NOR test was conducted in an open-field arena (40×40 cm) placed in a sound-attenuated room under dimmed lighting. Each rat was tested separately and care was taken to remove olfactory/taste cues by cleaning the arena and test objects with 70% alcohol between trials and rats. All training and testing trials were video-taped and scored by an observer blind to treatments.
# On Days 1 and 2, rats were allowed to freely explore the arena (no objects inside) for a 5-minute habituation period. On Day 3 (training and testing day), rats were administered vehicle (saline), galantamine or compound solutions followed by MK-801 or vehicle (saline). After the pretreatment time, each animal was placed into the test arena in the presence of two identical objects. Each rat was placed in the arena facing the same direction at the same position, and the time spent actively exploring the objects during a 3-minute training period (T1) was recorded. The rat was returned to its home cage following training. NOR test (T2) was conducted 1 hours after T1. Each rat was placed back into the test arena in the presence of one familiar object and one novel object for 5 minutes, and the time spent exploring both objects was recorded during 0-1, 0-3 and 0-5 min time ranges. The presentation order and position of the objects (left/right) in T2 was randomized between rats to prevent bias from order or place preference.
# Statistical Analysis. Data of NOR test (T2) were expressed as Recognition Index, which is defined as the ratio of the time spent exploring the novel object over the total time spent exploring both objects (Novel/(Familiar+Novel)×100%) during the test session. Data were analyzed by using one-way ANOVA followed by Fisher's LSD post hoc test on 0-1, 0-3 and 0-5 minute time range separately, with significance set at P<0.05. […] And then statistical outliers that fell above or below two standard deviations from the mean were removed from the final analysis. […]
# rats [2] = assay: Inflammatory pain: kaolin, gait score (Example 13); assay type: in vivo, rat; conditions: Indomethacin 30 mg/kg p.o.
# Method: Kaolin. Induction: In rats, unilateral arthritis was induced by an intra-articular injection of a 10% kaolin suspension into the knee joint of the right hind paw under gas anesthesia (3.5% isoflurane/3 L/min). Gait score: The gait score will be evaluated 3 h 30 min after kaolin administration by:
# 2: intermittent raising of the paw
# rats [3] = assay: Inflammatory pain: carrageenan, paw pressure test (Example 13); assay type: in vivo, rat; conditions: Indomethacin 30 mg/kg p.o.
# rats [4] = assay: Acute and tonic pain: healthy rats, paw pressure test (Example 13); conditions: Morphine 4 mg/kg s.c.
# Method: Paw Pressure Test. Static mechanical hyperalgesia is measured. This test requires the application of an increasing pressure on the hind paws between a flat surface and a blunt pointer. To evaluate the analgesic action of a compound, one hind paw of the animal was inflamed by an injection or injured by ligation, while the other hind paw was not injured or inflamed. The apparatus exerted a steadily increasing force on the hind paws. The reaction threshold was determined as the pressure (g) required to elicit paw withdrawal and/or vocalization. The animals were gently handled by the experimenter and static mechanical hyperalgesia were assessed two times for both hind paws.
# (§1) Testing: 120 minutes after treatment. N=4/model/test. Results are expressed for each group as a percentage of activity calculated from the mean value of the vehicle-treated animals and compared to naïve animals, control paw, or cut-off value, depending on the test.
# rats [5] = assay: Post-operative pain: Brennan model, electronic Von Frey test (Example 13); assay type: in vivo, rat; conditions: Morphine 4 mg/kg s.c.
# Description: Surgery: Surgery was done under gas anesthesia (2.5% isoflurane/3 L/min). For all rats, the plantar aspect of the left hind paw was exposed and a 1 cm longitudinal incision was made using a surgical blade, through the skin and fascia of the plantar aspect of the foot, starting 0.5 cm from the proximal edge of the heel and extending toward the toes. The plantaris muscle was elevated and incised longitudinally whereas the insertions remained intact. After hemostasis with gentle pressure, the skin was stitched up with two sutures. After surgery, animals recovered in their cages.
# Electronic Von Frey Test: Tactile allodynia was assessed using the electronic Von Frey test 24 h after surgery. […] The apparatus exerted a steady force on the hind paws. […] Each reaction threshold measurement was repeated three times for both hind paws with intervals of approximately 2 to 3 mins.
# rats [6] = assay: Acute and tonic pain: healthy rats, tail flick test (Example 13); conditions: Morphine 4 mg/kg s.c.
# Method: Tail Flick Test. A radiant heat was applied on the tail. When the rat felt discomfort, it reacted by a sudden tail movement (tail flick) which automatically stopped the stimulation and the timer for the measurement by the animal reaction time or nociceptive reaction latency (period from the beginning of the stimulation until detection of the response of the animal). A cut-off was previously fixed at 10 sec in order to prevent tissue damage.
# as §1
# rats [7] = assay: Acute and tonic pain: formalin test, score (Example 13); assay type: in vivo, rat; conditions: Morphine 4 mg/kg s.c.
# Method: Formalin Test. 2.5% formalin solution was injected by subplantar route into the right hind paw. Scoring of pain behavior was performed in rats for 36 minutes every 3 minutes according to the following scores:
# 0=normal behavior of the injected hind limb to support the body
# 1=slight touching of the injected paw on the floor to lightly support or not support the body
# 2=total withdrawal of the injected paw
# 3=licking, biting or shaking of the injected paw
# [8] = D18, 60 min post administration
# [9] = D18, 120 min post administration
compound,measurement,setting,value
NCC1(CC(=O)O)CCCCC1 [Gabapentin],nociceptive threshold (paw pressure test),[1]; [8],272 ± 6.6 g
same,nociceptive threshold (paw pressure test),[1]; [9],302 ± 17.7 g
same,nociceptive threshold (paw pressure test),"[1]; D21, 120 min after dosing",274 ± 19.2 g
"COc1ccc2c3c1O[C@H]1C[C@@H](O)C=C[C@@]31CCN(C)C2 [Galantamine, reference compound]","Recognition Index, Mean",male Long Evans rats; Galantamine (1 mg/kg IP) + MK-801,66.2%
"COc1ccc2c(c1)c(CC(=O)O)c(C)n2C(=O)c1ccc(Cl)cc1 [Indomethacin, reference compound]",% of activity vs. vehicle,rats [2],58%
same,% of activity vs. vehicle,rats [3],100%
"C[C@]12N[C@H](Cc3ccccc31)c1ccccc12 [MK-801, MK-801 (Dizocilpine), reference compound]","Recognition Index, Mean",male Long Evans rats; Vehicle + MK-801 (0.1 mg/kg IP),54.1%
same,"effect on recognition memory (Recognition Index approaching chance level, 50%)","male Long Evans rats; MK-801 0.1 mg/kg IP, 0-1, 0-3 and 0-5 min",caused a strong memory deficit
"CN1CC[C@]23c4c5ccc(O)c4O[C@H]2[C@@H](O)C=C[C@H]3[C@H]1C5 [Morphine, reference compound]",% of activity vs. vehicle,rats [4],69%
same,% of activity vs. vehicle,rats [5],88%
same,nociceptive threshold (paw pressure test),[1]; [8],420 ± 35 g
same,nociceptive threshold (paw pressure test),[1]; [9],317 ± 27.6 g
same,nociceptive threshold (paw pressure test),"[1]; D21, 120 min after dosing",283 ± 16.7 g
same,% of activity vs. vehicle,rats [6],66%
same,% of activity vs. vehicle,rats [7]; Formalin test - score (early phase),57%
same,% of activity vs. vehicle,rats [7]; Formalin test - score (late phase),38%

# Reference: US11731977B2, “SGC stimulators” (Cyclerion Therapeutics, Inc., priority 2016, dated 2023)
